Results on 6 compounds are retold here after patent US20090325952A1, “PYRAZOLO[3,4-B]PYRIDINE COMPOUNDS, AND THEIR USE AS PDE4 INHIBITORS” (Glaxo Group Limited, priority 2006, published 2009).

Counter-ions that a name gives are not always drawn.

This assay has as its system TNF-α (TNF-alpha) production in human PBMC (peripheral blood mononuclear cells). Nature of the assay: Inhibition of TNF-alpha production in human PBMC assay (MSD technology). The class given is cell-based. The settings on record: LPS stimulated, measured and/or mean of n measurements; for IC50: Homo sapiens, PBMC, read-out: PBMC pIC50 (MSD assay), inhibition of TNF-α production (converted). The procedure:
A 96-well plate (96 MicroWell™ Plates Nunclon™Δ-High Flange Design, Fisher Scientific UK, Bishop Meadow Road, Loughborough LE 11 5 RG, Leicestershire, UK) is prepared by initially adding to column 1 ca. 10 mM of test compound dissolved in DMSO. […] The compound is further diluted with DMSO into columns 2 to 9 by 8 successive 3-fold dilutions using the Biomek® FX Laboratory Automation Workstation (Beckman Coulter, Inc., 4300 N. Harbor Boulevard, P.O. Box 3100, Fullerton, Calif. 92834-3100, USA). Column 10 is used as a DMSO negative control (High Signal, 0% response), whilst column 11, which contains 10 mM of the PDE4 inhibitor roflumilast, is used as a positive control (Low Signal, 100% response). About 1 μl (about 1 ul) of compound is transferred to the compound plate using the Biomek® FX.
PBMC cells (peripheral blood mononuclear cells) are prepared from heparinised human blood (using 1% v/v Heparin Sodium 10001 U/ml Endotoxin Free, Leo Laboratories Ltd., Cashel Road, Dublin 12. Ireland, Cat No: PL0043/0149) from normal volunteers using the Accuspin™ System-Histopaque®-1077 essentially (Sigma-Aldrich Company Ltd., The Old Brickyard New Rd, Gillingham, Dorset SP8 4XT, UK). About 20 ml of blood is overlaid onto 15 ml Histopaque® in Accuspin™ tubes. The tube is then centrifuged at about 800 g for ca. 20 minutes. The cells are collected from the interface, washed by centrifugation (ca. 1300 g, ca. 10 minutes) and resuspended in RPMI1640 medium (Low endotoxin RPMI1640 medium, Cat No: 31870-025, Invitrogen Corporation Invitrogen Ltd, 3 Fountain Drive, Inchinnan Business Park, Paisley PA4 9RF, UK) containing 10% foetal calf serum, 1% L-glutamine (Invitrogen Corporation, Cat No: 25030024) and 1% penicillin/streptomycin (Invitrogen Corporation, Cat No: 15140-122). Viable cells are counted by trypan blue staining and diluted to 1×10^6 viable cells/ml. About 50 μl (about 50 ul) of diluted cells and about 75 μl (about 75 ul) of LPS (ca. 1 ng/ml final; Sigma Cat No: L-6386) are added to the compound plate, which is then incubated at 37° C., 5% CO2, for 20 hours.
The supernatant is removed and the concentrations of TNF-α are determined by electrochemiluminescence assay using the Meso Scale Discovery (MSD) technology (Meso Scale Discovery, 9238 Gaither Road, Gaithersburg, Md. 20877, USA). See the “TNF-α (TNF-alpha) MSD Assay” described below for typical details.
For the following Examples, which are compounds of formula (I) or salts thereof, and generally when using the one of the above assays, or a generally similar or generally analogous assay, the measured and/or mean pIC50 values for inhibition of TNF-α (TNF-alpha) production in PBMCs are generally as follows (subject to a possibly-large variability or error):
Using the Biomek FX, 25 μl (25 ul) of MSD Human Serum Cytokine Assay Diluent (Meso Scale Discovery, 9238 Gaither Road, Gaithersburg, Md. 20877) is added to a 96-well High-Bind MSD plate pre-coated with anti-hTNF alpha capture antibody (MA6000) and then incubated for 24 hours at 4° C. to prevent non-specific binding. About 20 μl (ul) of supernatant from the PBMC plate or about 40 μl (ul) of supernatant from the whole blood (WB) plate are then transferred from columns 1-11 to columns 1-11 of the MSD plate using the Biomek FX. About 20 μl (ul) of TNF-α standard (Cat No. 210-TA; R&D Systems Inc., 614 McKinley Place NE, Minneapolis, Minn. 55413, USA) are added to column 12 of the MSD plate to generate a standard calibration curve (about 0 to 30000 pg/ml final).
For the Whole Blood assay, plates are washed after 2 hours shaking with a Skanwasher 300 version B (Skatron Instruments AS. PO Box 8, N-3401 Lier, Norway). About 40 μl (ul) of diluted sulfo-TAG antibody (ca. […] final) is added, the plates are shaken at room temperature for 1 hours, and the plates washed again as above. About 150 μl (ul) of Read Buffer T (2×) is added to the plates, which are then read on a MSD Sector 6000. […]

In the case of `CCc1nc2c(cnn2CC)c(NC2CCOCC2)c1CNC(=O)c1ccc(CCCCOCCCCN(C)CCO)cc1` [Example 19, formate salt of N-{[1,6-diethyl-4-(tetrahydro-2H-pyran-4-ylamino)-1H-pyrazolo[3,4-b]pyridin-5-yl]methyl}-4-[4-({4-[(2-hydroxyethyl)(methyl)amino]butyl}oxy)butyl]benzamide], the IC50 was around 0.251 nM. Consider `CCc1nc2c(cnn2CC)c(NC2CCN(C(N)=O)CC2)c1CNC(=O)c1ccc(CCCCOCCCCN2CCOCC2)cc1` [Example 23A, 4-({1,6-diethyl-5-[({[4-(4-{[4-(4-morpholinyl)butyl]oxy}butyl)phenyl]carbonyl}amino)methyl]-1H-pyrazolo[3,4-b]pyridin-4-yl}amino)-1-piperidinecarboxamide], for which the “PBMC pIC50 (MSD assay), inhibition of TNF-α production” value (“PBMC pIC50 (MSD assay), inhibition” for short) is “about 9.1 (n = 8)”. On to `CCc1nc2c(cnn2CC)c(NC2CCN(C(N)=O)CC2)c1CNC(=O)c1ccc(NC(=O)CCCCCCCN(C)CCO)cc1.O=C(O)C(F)(F)F` [Example 9, 4-({1,6-diethyl-5-[({[4-({8-[(2-hydroxyethyl)(methyl)amino]octanoyl}amino)phenyl]carbonyl}amino)methyl]-1H-pyrazolo[3,4-b]pyridin-4-yl}amino)-1-piperidinecarboxamide trifluoroacetate (salt)], for which the “PBMC pIC50 (MSD assay), inhibition” value is “about 8.4 (n = 4)”. On to `CCn1ncc2c(NC3CCOCC3)c(CNC(=O)c3ccc(NC(=O)CCCCCCCN(C)CCO)cc3)cnc21` [Example 26, Formate salt of N-{[1-ethyl-4-(tetrahydro-2H-pyran-4-ylamino)-1H-pyrazolo[3,4-b]pyridin-5-yl]methyl}-4-({8-[(2-hydroxyethyl)(methyl)amino]octanoyl}amino)benzamide], for which the IC50 is around 15.8 nM. The same measure, in the same setting: with `CCc1nc2c(cnn2CC)c(NC2CCOCC2)c1CNC(=O)c1ccc(NC(=O)CCCCCCCN(C)CCO)cc1` [Example 1A1, N-{[1,6-Diethyl-4-(tetrahydro-2H-pyran-4-ylamino)-1H-pyrazolo[3,4-b]pyridin-5-yl]methyl}-4-({8-[(2-hydroxyethyl)(methyl)amino]octanoyl}amino)benzamide dihydrochloride] the figure was around 0.501 nM.

As to `CCc1nc2c(cnn2CC)c(NC2CCOCC2)c1CNC(=O)c1ccc(NC(=O)CCCCCCCN(C)CCO)cc1` [Example 1B, N-{[1,6-diethyl-4-(tetrahydro-2H-pyran-4-ylamino)-1H-pyrazolo[3,4-b]pyridin-5-yl]methyl}-4-({8-[(2-hydroxyethyl)(methyl)amino]octanoyl}amino)benzamide], the “PBMC pIC50 (MSD assay), inhibition” value is “about 9.2 (n = 29)”.
